Tested on: swine
Test: pilot physiological study in healthy, chronically instrumented swine
Type: in vivo
Settings: for LV dP/dtmin: in mmHg/s (unit assumed)
Procedure: Pilot physiological studies were performed in 2 female swine (45 and 85 kg), to confirm the lack of adverse effects from DMX-10001 in healthy myocardium. Animals were chronically instrumented as detailed below. Following a recovery week, animals received the pro-drug DMX-10001, while hemodynamics were recorded. Based on prior pharmacokinetic studies and modeling (Fig. 1b), two different dosing regimens were investigated, a three-step infusion (41 mg/kg/h, 0.5 h + 15.3 mg/kg/h, 2.5 h + 9.8 mg/kg/h, 5 h) versus a logistically simpler two-step approach (60 mg/kg/h, 0.5 h + 17 mg/kg/h, 23.5 h). During infusion of the pro-drug, blood was sampled to measure production of the active form, DMX-5804, by liquid chromatography–mass spectometry (Pharmidex, London, UK) as described.
A chronically instrumented animal received DMX-10001 for 8 h as shown, with a rapid initial infusion then stepwise decreasing concentrations over time. […] HR, heart rate; MAP, mean arterial pressure; CO, cardiac output; SV, stroke volume; SVR, systemic vascular resistance; dP/dtmax, maximal rate of rise in LV pressure; dP/dtmin, maximal rate of fall in LV pressure.
A chronically instrumented animal received DMX-10001 for 24 h as shown, starting with rapid infusion for half an hour then a lower concentration. […] HR, heart rate; MAP, mean arterial pressure; CO, cardiac output; SV, stroke volume; SVR, systemic vascular resistance; dP/dtmax, maximal rate of rise in LV pressure; dP/dtmin, maximal rate of fall in LV pressure.

[1] = animal 1, three-step infusion, 2 min
[2] = animal 1, three-step infusion, 10 min
[3] = animal 1, three-step infusion, 40 min
[4] = animal 1, three-step infusion, 1h
[5] = animal 1, three-step infusion, 2h
[6] = animal 1, three-step infusion, 3h
[7] = animal 1, three-step infusion, 4h
[8] = animal 1, three-step infusion, 6h
[9] = animal 1, three-step infusion, 8h
[10] = animal 1, three-step infusion, 8h 2 min
[11] = animal 1, three-step infusion, 8h 10 min
[12] = animal 1, three-step infusion, 8h 30 min
[13] = animal 1, three-step infusion, Baseline
[14] = animal 2, two-step infusion, 2 min
[15] = animal 2, two-step infusion, 10min
[16] = animal 2, two-step infusion, 30 min
[17] = animal 2, two-step infusion, 40 min
[18] = animal 2, two-step infusion, 2h
[19] = animal 2, two-step infusion, 24h
[20] = animal 2, two-step infusion, 24h 2 min
[21] = animal 2, two-step infusion, 24h 10 min
[22] = animal 2, two-step infusion, 24h 30 min
[23] = animal 2, two-step infusion, 25h
[24] = animal 2, two-step infusion, Baseline

COCCOc1ccc(-c2cn(-c3ccccc3)c3ncn(COP(=O)(O)O)c(=O)c23)cc1 [DMX-10001]
CO [1]: 11.2 L/min
HR [1]: 116 bpm
LV dP/dtmax [1]: 4070 mmHg/s
MAP [1]: 96 mmHg
SV [1]: 97 mL
SVR [1]: 8.6 mmHg/L/min
LV dP/dtmin [1]: -2280
CO [2]: 11.1 L/min
HR [2]: 112 bpm
LV dP/dtmax [2]: 3290 mmHg/s
MAP [2]: 88 mmHg
SV [2]: 99 mL
SVR [2]: 7.9 mmHg/L/min
LV dP/dtmin [2]: -2280
CO [3]: 10.1 L/min
HR [3]: 105 bpm
LV dP/dtmax [3]: 4060 mmHg/s
MAP [3]: 99 mmHg
SV [3]: 96 mL
SVR [3]: 9.8 mmHg/L/min
LV dP/dtmin [3]: -2530
CO [4]: 10.7 L/min
HR [4]: 115 bpm
LV dP/dtmax [4]: 4040 mmHg/s
MAP [4]: 103 mmHg
SV [4]: 93 mL
SVR [4]: 9.7 mmHg/L/min
LV dP/dtmin [4]: -2690
CO [5]: 11.4 L/min
HR [5]: 106 bpm
LV dP/dtmax [5]: 4840 mmHg/s
MAP [5]: 107 mmHg
SV [5]: 108 mL
SVR [5]: 9.4 mmHg/L/min
LV dP/dtmin [5]: -3270
CO [6]: 13.0 L/min
HR [6]: 120 bpm
LV dP/dtmax [6]: 6030 mmHg/s
MAP [6]: 117 mmHg
SV [6]: 108 mL
SVR [6]: 9.0 mmHg/L/min
LV dP/dtmin [6]: -3330
CO [7]: 12.0 L/min
HR [7]: 113 bpm
LV dP/dtmax [7]: 5260 mmHg/s
MAP [7]: 120 mmHg
SV [7]: 106 mL
SVR [7]: 10 mmHg/L/min
LV dP/dtmin [7]: -3020
CO [8]: 12.9 L/min
HR [8]: 134 bpm
LV dP/dtmax [8]: 5430 mmHg/s
MAP [8]: 105 mmHg
SV [8]: 96 mL
SVR [8]: 8.2 mmHg/L/min
LV dP/dtmin [8]: -2830
CO [9]: 11.8 L/min
HR [9]: 111 bpm
LV dP/dtmax [9]: 5020 mmHg/s
MAP [9]: 95 mmHg
SV [9]: 106 mL
SVR [9]: 8.0 mmHg/L/min
CO [10]: 11.1 L/min
HR [10]: 105 bpm
LV dP/dtmax [10]: 4550 mmHg/s
MAP [10]: 92 mmHg
SV [10]: 106 mL
SVR [10]: 8.3 mmHg/L/min
LV dP/dtmin [10]: -2820
CO [11]: 11.4 L/min
HR [11]: 105 bpm
LV dP/dtmax [11]: 4730 mmHg/s
MAP [11]: 102 mmHg
SV [11]: 109 mL
SVR [11]: 8.9 mmHg/L/min
LV dP/dtmin [11]: -3300
CO [12]: 14.3 L/min
HR [12]: 127 bpm
LV dP/dtmax [12]: 5740 mmHg/s
MAP [12]: 101 mmHg
SV [12]: 113 mL
SVR [12]: 7.1 mmHg/L/min
LV dP/dtmin [12]: -3190
LV dP/dtmin [9]: -2920
CO [13]: 11.1 L/min
HR [13]: 117 bpm
LV dP/dtmax [13]: 3470 mmHg/s
MAP [13]: 94 mmHg
SV [13]: 95 mL
SVR [13]: 8.5 mmHg/L/min
LV dP/dtmin [13]: -2500
CO [14]: 9.7 L/min
HR [14]: 116 bpm
LV dP/dtmax [14]: 5860 mmHg/s
MAP [14]: 80 mmHg
SV [14]: 84 mL
SVR [14]: 8.2 mmHg/L/min
LV dP/dtmin [14]: -4170
CO [15]: 6.9 L/min
HR [15]: 90 bpm
LV dP/dtmax [15]: 3400 mmHg/s
MAP [15]: 83 mmHg
SV [15]: 76 mL
SVR [15]: 12.1 mmHg/L/min
LV dP/dtmin [15]: -3670
CO [16]: 6.7 L/min
HR [16]: 92 bpm
LV dP/dtmax [16]: 3420 mmHg/s
MAP [16]: 84 mmHg
SV [16]: 72 mL
SVR [16]: 12.7 mmHg/L/min
LV dP/dtmin [16]: -3430
CO [17]: 6.1 L/min
HR [17]: 83 bpm
LV dP/dtmax [17]: 3680 mmHg/s
MAP [17]: 90 mmHg
SV [17]: 73 mL
SVR [17]: 14.8 mmHg/L/min
LV dP/dtmin [17]: -3640
CO [18]: 7.2 L/min
HR [18]: 91 bpm
LV dP/dtmax [18]: 4250 mmHg/s
MAP [18]: 94 mmHg
SV [18]: 79 mL
SVR [18]: 13.1 mmHg/L/min
LV dP/dtmin [18]: -4120
CO [19]: 8.7 L/min
HR [19]: 107 bpm
LV dP/dtmax [19]: 4260 mmHg/s
MAP [19]: 89 mmHg
SV [19]: 82 mL
SVR [19]: 10.2 mmHg/L/min
CO [20]: 9.1 L/min
HR [20]: 111 bpm
LV dP/dtmax [20]: 5090 mmHg/s
MAP [20]: 72 mmHg
SV [20]: 82 mL
SVR [20]: 7.9 mmHg/L/min
LV dP/dtmin [20]: -3740
CO [21]: 7.0 L/min
HR [21]: 87 bpm
LV dP/dtmax [21]: 3950 mmHg/s
MAP [21]: 97 mmHg
SV [21]: 80 mL
SVR [21]: 13.9 mmHg/L/min
LV dP/dtmin [21]: -4120
CO [22]: 7.7 L/min
HR [22]: 92 bpm
LV dP/dtmax [22]: 4810 mmHg/s
MAP [22]: 144 mmHg
SV [22]: 83 mL
SVR [22]: 18.9 mmHg/L/min
LV dP/dtmin [22]: -4140
LV dP/dtmin [19]: -3380
CO [23]: 9.1 L/min
HR [23]: 115 bpm
LV dP/dtmax [23]: 5360 mmHg/s
MAP [23]: 153 mmHg
SV [23]: 79 mL
SVR [23]: 16.8 mmHg/L/min
LV dP/dtmin [23]: -4460
CO [24]: 7.8 L/min
HR [24]: 101 bpm
LV dP/dtmax [24]: 3800 mmHg/s
MAP [24]: 77 mmHg
SV [24]: 77 mL
SVR [24]: 10.0 mmHg/L/min
LV dP/dtmin [24]: -3040
adverse effect on hemodynamics or LV function (pilot studies of two healthy animals): No adverse effect
